The results in this text go back to patent publication US20240140941A1, “DERIVATIVE OF 2,5-DIKETOPIPERAZINE COMPOUND, AND PREPARATION METHOD THEREFOR, PHARMACEUTICAL COMPOSITION THEREOF AND USE THEREOF” (DALIAN WZ PROBIOTICS AD HEALTH CO., LTD, priority 2020, published 2024).

As usually defined, the IC50 is the point on the concentration scale where inhibition reaches its midpoint. The solubility is the dissolved amount per volume that the medium holds.

Structures can show the parent of a compound that is named as a salt.

For one data set, the system named is HCC-LM3. Description: Inhibition test on cell proliferation (MTT), HCC-LM3. The format is cell-based, human. Conditions: 72 hours of drug treatment, MTT; hydrochloride; read-out: IC50 (nM) HCC-LM3. A digest of the protocol: (§1)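 Cells plated at 2000-6000 per well, allowed to adhere for 24 h, then exposed to serially diluted compound for 72 h at 37 °C, 5% CO2. Viability read by MTT reduction, with formazan dissolved in DMSO and absorbance taken at 490 nm. Inhibition rate calculated relative to untreated and zero-setting wells.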

For a further data set, the system named is NCI-H460 cell line. Description: Cell apoptosis experiment (Annexin V/PI double staining, flow cytometer), NCI-H460. The format is cell-based, human. As for the experimental part:
(§2) 1. Cell collection: The cell culture dish was taken out, the culture medium was washed with PBS, digested with EDTA-free trypsin, collected into a centrifuge tube. The number of cells per sample was about 1×10^6/mL, and the centrifuge tube was centrifuged at 800 r/min for 3 min, and the culture medium was discarded.
(§3) 2. The residue was washed twice with frozen PBS, centrifuged at 800 r/min for 3 min each time, and the supernatant was discarded.
(§4) 3. Blank group, single-stained group and double-stained group were set, and 100 μL of binding buffer was added thereto. 5 μL of FITC-annexin V and 5 μL of PI were chosen according to different groups, mixed gently, incubated at room temperature in the dark for 15 min, then 400 μL of binding buffer was added thereto, and the cells were gently mixed.
(§5) 4. After filtering the cell suspension with a 300-mesh nylon membrane, the cell suspension was detected by a flow cytometer.

A short description of data set [1]: Compound solubility experiment, Method 2: about 2 mg salt in 0.2 mL ultrapure water, dissolution observed. Conditions: 37 °C, thermodynamic from solid, salts, 37±1° C., shaken 24 hours. The format is physicochemical. As for the experimental part:
Method 2: A 0.5 mL brown EP tube was taken, about 2 mg of hydrochloride of derivatives of 2,5-diketopiperazine compounds was weighed respectively, and 0.2 mL of ultrapure water was added thereto. The mixture was vortexed, put into an incubation shaker, maintained at a temperature of (37±1° C.), shaken at 100 r/min for 24 hours, so as to achieve full dissolution equilibrium. The dissolution of the mixture was observed.

Data set [2] deals with β-tubulin. Description: Immunofluorescence experiment, NCI-H460 cell line. It counts as cell-based, human. As to the method: (§6) 1. Cell membrane rupture: After the cover slip was shaken to slight dryness, a circle was drawn using a histochemical pen at the position where the cells were evenly distributed in the middle of the cover slip (to prevent the antibody from flowing away). 50 to 100 μL of membrane rupture working solution was added, and incubated at room temperature for 20 min, washed 3 times with PBS, 5 min each time.
(§7) 2. Serum blocking: BSA was added dropwise in the circle to evenly cover the tissue and block at room temperature for 30 min. (The primary antibody was from goat and blocked with 10% normal rabbit serum, and the primary antibody from other sources was blocked with 3% BSA)
(§8) 3. Adding the primary antibody: The blocking solution was shaken off gently, and the primary antibody was added dropwise in the cell well plate (prepared in a certain proportion using PBS), and the cell culture plate was placed flat in a humid box and incubated overnight at 4° C.
(§9) 4. Adding secondary antibody: PBS was added to the cell culture plate, placed on a decolorizing shaker, shaken and washed for 3 times, 5 min each time. After shaking to slight dryness, a secondary antibody corresponding to the species of the primary antibody in the histochemical kit was added dropwise in the circle to cover the tissue, and incubated at room temperature for 50 min.
(§10) 5. DAPI restaining nucleus: The cover slip was placed in PBS (pH 7.4), shaken and washed 3 times on the decolorizing shaker, 5 min each time. After the cover slip was shaken to slight dryness, DAPI staining solution was added dropwise in the circle, and incubated at room temperature for 10 min in the dark.
(§11) 6. Sealing the cover slip: The cover slip was placed in PBS (pH 7.4), shaken and washed 3 times on the decolorizing shaker, 5 min each time. After the cover slip was shaken to slight dryness, the cover slip was sealed with antifade mounting medium.
(§12) 7. Microscopic examination and photographing: The cover slip was observed under a fluorescent microscope and images were collected.

The test system of data set [3] is β-tubulin. Description: Immunofluorescence experiment, BxPC-3 cell line. It counts as cell-based, human. As to the method:
as §6, §7, §8, §9, §10, §11, §12

A further data set deals with NCI-H460. Briefly: Inhibition test on cell proliferation (MTT), NCI-H460. The format is cell-based, human. Conditions: 72 hours of drug treatment, MTT; hydrochloride; read-out: IC50 (nM) NCI-H460. The method, boiled down:
as §1

Another data set deals with BxPC-3 cell line. Briefly: Cell apoptosis experiment (Annexin V/PI double staining, flow cytometer), BxPC-3. The format is cell-based, human. As to the method: as §2, §3, §4, §5
On the technique in general: In flow cytometry, cells or beads pass a laser one at a time.

The next data set deals with HT-29. Briefly: Inhibition test on cell proliferation (MTT), HT-29. To be noted: 72 hours of drug treatment, hydrochloride. It counts as cell-based, human. The method, boiled down: as §1
The test system of a further data set is BxPC-3. Description: Inhibition test on cell proliferation (MTT), BxPC-3. Conditions: 72 hours of drug treatment, MTT; hydrochloride; read-out: IC50 (nM) BxPC-3. The format is cell-based, human. A digest of the protocol:
as §1

Take `CC(C)c1c(/C=c2\[nH]c(=O)/c(=C/c3cccc(C(=O)c4ccc(F)cc4)c3)[nH]c2=O)ncn1CCCN1CCOCC1` [PLN-2-1-1, (3Z,6Z)-3-(3-(p-Fluorobenzoyl)phenyl)methylene-6-((5-isopropyl-1-(3-morpholinyl)propylimidazol-4-yl)methylene)piperazine-2,5-dione, hydrochloride]: the IC50 in the data set with HCC-LM3 is 2.04 ± 0.57 nM; with NCI-H460, 2.28 ± 1.24 nM; in the data set with HT-29 it was 1.56 ± 0.47 nM; in the data set on BxPC-3, 1.77 ± 0.03 nM. Besides, the number of apoptosis entry is listed as “significantly increased” in the data set on NCI-H460 cell line (NCI-H460, in words) and “significantly increased” with BxPC-3 cell line (BxPC-3, in words). Also, the “Proportion of late apoptotic cells” value in the data set with NCI-H460 cell line (NCI-H460, blank control 0.54%) is reported as 9.70%; with BxPC-3 cell line (BxPC-3, blank control 0.94%), 6.79%. The “Proportion of early apoptotic cells” value is given as 3.55% with NCI-H460 cell line (NCI-H460, blank control 1.84%) and 3.82% with BxPC-3 cell line (BxPC-3, blank control 1.11%). The solubility at 24 h in data set [1] was greater than 10 mg/mL. For the same compound, the β-tubulin fluorescence value in the data set with β-tubulin [2] (NCI-H460 cell line, control 20330 ± 1233) is on record as 5344; with β-tubulin [3] (BxPC-3 cell line, control 29873 ± 4013), 9533. Further, the “number of tubulin distributed radially” value in the data set on β-tubulin [2] (NCI-H460 cells, in words) is reported as “significantly reduced”; with β-tubulin [3] (BxPC-3 cells, in words), “significantly reduced”.
